Converted amounts (≈) assume the structure as drawn.
Columns and labels:
Assay in all cases: In vitro antibacterial evaluation: minimum inhibitory concentration (MIC), broth dilution method
Assay type in all cases: cell-based
[1] = test system: Streptococcus sp.; conditions: 18 hours at 35° C.
Outline: (§1)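 NCCLS M7-A2 broth dilution; Muller-Hinton II […]; 5×10^5 CFU/mL; 64-0.06 μg/mL. MIC = lowest concentration with no growth.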

[2] = test system: Escherichia coli; conditions: 18 hours at 35° C.
Outline: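 Inoculum: 5×10^5 CFU/mL. Range: 64-0.06 μg/mL. Medium: Muller-Hinton II […]; NCCLS M7-A2 broth dilution. Endpoint: lowest concentration inhibiting growth. Strains include methicillin-, penicillin- and/or vancomycin-resistant clinical isolates.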

[3] = test system: Enterococcus sp.; conditions: 18 hours at 35° C.
Outline: as §1

[4] = test system: Staphylococcus sp.
Outline: as §1

[5] = broth dilution, inoculum 5×10^5 CFU/mL

For CC(c1ccccc1)C1NC(=O)CNC(=O)C(CO)NC(=O)C(C(O)C2CNC(=N)N2C2OC(CO)C(O)C(O)C2O)NC(=O)C(C(O)C2CNC(=N)N2)NC(=O)C(Cc2ccc(OC3OC(CO)C(OC4OC5COC(c6cccc(Oc7cccc(C(F)(F)F)c7)c6)OC5C(O)C4O)C(O)C3O)cc2)NC1=O (stereo not shown) [Example 184], the “MIC Streptococcus agalactiae (GC 4564)” value ([1]; Streptococcus agalactiae (GC 4564)) was 0.12 µg/mL (≈ 0.0777 µM), the “MIC Streptococcus pneumoniae (ATCC 6301)” value ([1]; Streptococcus pneumoniae (ATCC 6301)) was <0.06 µg/mL and the “MIC Streptococcus pneumoniae (GC 1894)” value ([1]; Streptococcus pneumoniae (GC 1894)) was <0.06 µg/mL. For the same compound, the “MIC Streptococcus pneumoniae (GC 4565)” value ([1]; Streptococcus pneumoniae (GC 4565)) was <0.06 µg/mL, the “MIC Streptococcus pyogenes (GC 4563)” value ([1]; Streptococcus pyogenes (GC 4563)) was 0.25 µg/mL (≈ 0.162 µM) and the “MIC Streptococcus agalactiae (GC 4564)” value [1, 5] was 0.12 µg/mL (≈ 0.0777 µM). The “MIC Streptococcus pneumoniae (ATCC 6301)” value [1, 5] was <0.06 µg/mL, the “MIC Streptococcus pneumoniae (GC 1894)” value [1, 5] was <0.06 µg/mL and the “MIC Streptococcus pneumoniae (GC 4565)” value [1, 5] was <0.06 µg/mL. For the same compound, the “MIC Streptococcus pyogenes (GC 4563)” value [1, 5] was 0.25 µg/mL (≈ 0.162 µM), the “MIC Escherichia coli (ATCC 25922)” value ([2]; Escherichia coli (ATCC 25922)) was >64 µg/mL and the “MIC Escherichia coli (GC 4559)” value ([2]; Escherichia coli (GC 4559)) was >64 µg/mL. For the same compound, the “MIC Escherichia coli (GC 4560)” value ([2]; Escherichia coli (GC 4560)) was 32 µg/mL (≈ 20.7 µM), the “MIC Enterococcus avium (GC 4558)” value ([3]; Enterococcus avium (GC 4558)) was 32 µg/mL (≈ 20.7 µM) and the “MIC Enterococcus faecalis (ATCC 29212)” value ([3]; Enterococcus faecalis (ATCC 29212)) was 32 µg/mL (≈ 20.7 µM). The “MIC Enterococcus faecalis (GC 2242)” value ([3]; Enterococcus faecalis (GC 2242)) was 32 µg/mL (≈ 20.7 µM), the “MIC Enterococcus faecalis (GC 2691)” value ([3]; Enterococcus faecalis (GC 2691)) was 32 µg/mL (≈ 20.7 µM) and the “MIC Enterococcus faecalis (GC 3059)” value ([3]; Enterococcus faecalis (GC 3059)) was 32 µg/mL (≈ 20.7 µM). For the same compound, the “MIC Enterococcus faecalis (GC 4552)” value ([3]; Enterococcus faecalis (GC 4552)) was 32 µg/mL (≈ 20.7 µM), the “MIC Enterococcus faecalis (GC 4553)” value ([3]; Enterococcus faecalis (GC 4553)) was 16 µg/mL (≈ 10.4 µM) and the “MIC Enterococcus faecalis (GC 4554)” value ([3]; Enterococcus faecalis (GC 4554)) was 32 µg/mL (≈ 20.7 µM). For the same compound, the “MIC Enterococcus faecalis (GC 6189)” value ([3]; Enterococcus faecalis (GC 6189)) was 32 µg/mL (≈ 20.7 µM), the “MIC Enterococcus faecium (GC 2243)” value ([3]; Enterococcus faecium (GC 2243)) was 16 µg/mL (≈ 10.4 µM) and the “MIC Enterococcus faecium (GC 4556)” value ([3]; Enterococcus faecium (GC 4556)) was 32 µg/mL (≈ 20.7 µM). For the same compound, the “MIC Enterococcus faecium (GC 4557)” value ([3]; Enterococcus faecium (GC 4557)) was 32 µg/mL (≈ 20.7 µM), the “MIC Enterococcus avium (GC 4558)” value [3, 5] was 32 µg/mL (≈ 20.7 µM) and the “MIC Enterococcus faecalis (ATCC 29212)” value [3, 5] was 32 µg/mL (≈ 20.7 µM). The “MIC Enterococcus faecalis (GC 2242)” value [3, 5] was 32 µg/mL (≈ 20.7 µM), the “MIC Enterococcus faecalis (GC 2691)” value [3, 5] was 32 µg/mL (≈ 20.7 µM) and the “MIC Enterococcus faecalis (GC 3059)” value [3, 5] was 32 µg/mL (≈ 20.7 µM). For the same compound, the “MIC Enterococcus faecalis (GC 4552)” value [3, 5] was 32 µg/mL (≈ 20.7 µM), the “MIC Enterococcus faecalis (GC 4553)” value [3, 5] was 16 µg/mL (≈ 10.4 µM) and the “MIC Enterococcus faecalis (GC 4554)” value [3, 5] was 32 µg/mL (≈ 20.7 µM). For the same compound, the “MIC Enterococcus faecalis (GC 6189)” value [3, 5] was 32 µg/mL (≈ 20.7 µM), the “MIC Enterococcus faecium (GC 2243)” value [3, 5] was 16 µg/mL (≈ 10.4 µM) and the “MIC Enterococcus faecium (GC 4556)” value [3, 5] was 32 µg/mL (≈ 20.7 µM). For the same compound, the “MIC Enterococcus faecium (GC 4557)” value [3, 5] was 32 µg/mL (≈ 20.7 µM), the “MIC Staphylococcus aureus (ATCC 29213)” value ([4]; strain ATCC 29213) was 32 µg/mL (≈ 20.7 µM) and the “MIC Staphylococcus aureus (GC 1131)” value ([4]; strain GC 1131) was 32 µg/mL (≈ 20.7 µM). For the same compound, the “MIC Staphylococcus aureus (GC 3051)” value ([4]; strain GC 3051) was 32 µg/mL (≈ 20.7 µM), the “MIC Staphylococcus aureus (GC 3053)” value ([4]; strain GC 3053) was 32 µg/mL (≈ 20.7 µM) and the “MIC Staphylococcus aureus (GC 4541)” value ([4]; strain GC 4541) was 32 µg/mL (≈ 20.7 µM). For the same compound, the “MIC Staphylococcus aureus (GC 4542)” value ([4]; strain GC 4542) was 32 µg/mL (≈ 20.7 µM), the “MIC Staphylococcus aureus-SMITH (GC 4543)” value ([4]; strain GC 4543) was 32 µg/mL (≈ 20.7 µM) and the “MIC Staphylococcus aureus (GC 4544)” value ([4]; strain GC 4544) was 32 µg/mL (≈ 20.7 µM). For the same compound, the “MIC Staphylococcus aureus (GC 4545)” value ([4]; strain GC 4545) was 32 µg/mL (≈ 20.7 µM), the “MIC Staphylococcus haemolyticus (GC 4546)” value ([4]; strain GC 4546) was 32 µg/mL (≈ 20.7 µM) and the “MIC Coagulase Negative Staphylococcus (GC 4547)” value ([4]; strain GC 4547) was 32 µg/mL (≈ 20.7 µM). For the same compound, the “MIC Coagulase Negative Staphylococcus (GC 4548)” value ([4]; strain GC 4548) was 16 µg/mL (≈ 10.4 µM), the “MIC Coagulase Negative Staphylococcus (GC 4549)” value ([4]; strain GC 4549) was 32 µg/mL (≈ 20.7 µM) and the “MIC Coagulase Negative Staphylococcus (GC 4551)” value ([4]; strain GC 4551) was 32 µg/mL (≈ 20.7 µM). The “MIC Coagulase Negative Staphylococcus (GC 6257)” value ([4]; strain GC 6257) was 16 µg/mL (≈ 10.4 µM).
